≈ marks a conversion by molar mass, not a printed value.
Tests used:
Test in all cases: microbe, parasite or virus in culture
K. pneumoniae = test system: K. pneumoniae
Procedure, shortened: (§1)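 Broth microdilution in MHB, 2-fold 12-point series from 128 or 64 down to 0.06 or 0.03 μg mL^−1, 5 × 10^5 CFU mL^−1. Extra runs in CAMHB per CLSI and in MHB with 1% agarose; n ≥ 6.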

P. aeruginosa = test system: P. aeruginosa
Procedure, shortened: as §1

E. coli = test system: E. coli
Procedure, shortened: as §1

CN(C)c1cc(NC(=O)CNC(C)(C)C)c(O)c2c1C[C@H]1C[C@H]3[C@H](N(C)C)C(O)=C(C(N)=O)C(=O)[C@@]3(O)C(O)=C1C2=O [TIG]
MIC, broth microdilution (K. pneumoniae; K. pneumoniae 3010 parent strain not exposed to drug): 0.5 µg/mL (≈ 0.854 µM) | MIC, broth microdilution (K. pneumoniae; K. pneumoniae 3010 spontaneous mutant, AA139 selection 4X, plate 1, colony 1, drug-free passage 1): 0.5, 0.5 µg/mL | MIC, broth microdilution (K. pneumoniae; K. pneumoniae 3010 spontaneous mutant, AA139 selection 4X, plate 1, colony 1, drug-free passage 5): 0.5, 0.5 µg/mL | MIC, broth microdilution (K. pneumoniae; K. pneumoniae 3010 spontaneous mutant, AA139 selection 8X, plate 1, colony 1, drug-free passage 1): 0.5, 0.5 µg/mL | MIC, broth microdilution (K. pneumoniae; K. pneumoniae 3010 spontaneous mutant, AA139 selection 8X, plate 1, colony 1, drug-free passage 5): 0.5, 0.5 µg/mL | MIC, broth microdilution (K. pneumoniae; K. pneumoniae ST258 parent strain not exposed to drug): 0.5 µg/mL (≈ 0.854 µM) | MIC, broth microdilution (K. pneumoniae; K. pneumoniae ST258 spontaneous mutant, AA139 selection 4X, plate 1, colony 1, drug-free passage 1): 0.5, 0.5 µg/mL | MIC, broth microdilution (K. pneumoniae; K. pneumoniae ST258 spontaneous mutant, AA139 selection 4X, plate 1, colony 1, drug-free passage 5): 0.5, 0.5 µg/mL | MIC, broth microdilution (P. aeruginosa; P. aeruginosa ATCC 27853 parent strain not exposed to drug): 8 µg/mL (≈ 13.7 µM) | MIC, broth microdilution (P. aeruginosa; P. aeruginosa ATCC 27853 spontaneous mutant, AA139 selection 4X, plate 1, colony 1, drug-free passage 1): 8, 8 µg/mL | MIC, broth microdilution (P. aeruginosa; P. aeruginosa ATCC 27853 spontaneous mutant, AA139 selection 4X, plate 1, colony 1, drug-free passage 5): 8, 8 µg/mL | MIC, broth microdilution (P. aeruginosa; P. aeruginosa ATCC 27853 spontaneous mutant, AA139 selection 4X, plate 1, colony 2, drug-free passage 1): 8, 8 µg/mL | MIC, broth microdilution (P. aeruginosa; P. aeruginosa ATCC 27853 spontaneous mutant, AA139 selection 4X, plate 1, colony 2, drug-free passage 5): 8, 8 µg/mL | MIC, broth microdilution (P. aeruginosa; P. aeruginosa ATCC 27853 spontaneous mutant, AA139 selection 4X, plate 1, colony 3, drug-free passage 1): 8, 8 µg/mL | MIC, broth microdilution (P. aeruginosa; P. aeruginosa ATCC 27853 spontaneous mutant, AA139 selection 4X, plate 1, colony 3, drug-free passage 5): 8, 8 µg/mL | MIC, broth microdilution (P. aeruginosa; P. aeruginosa ATCC 27853 spontaneous mutant, AA139 selection 4X, plate 1, colony 4, drug-free passage 1): 8, 8 µg/mL | MIC, broth microdilution (P. aeruginosa; P. aeruginosa ATCC 27853 spontaneous mutant, AA139 selection 4X, plate 1, colony 4, drug-free passage 5): 8, 8 µg/mL | MIC, broth microdilution (P. aeruginosa; P. aeruginosa ATCC 27853 spontaneous mutant, AA139 selection 4X, plate 1, colony 5, drug-free passage 1): 16, 16 µg/mL | MIC, broth microdilution (P. aeruginosa; P. aeruginosa ATCC 27853 spontaneous mutant, AA139 selection 4X, plate 1, colony 5, drug-free passage 5): 16, 16 µg/mL | MIC, broth microdilution (P. aeruginosa; P. aeruginosa ATCC 27853 spontaneous mutant, AA139 selection 4X, plate 1, colony 6, drug-free passage 1): 8, 8 µg/mL | MIC, broth microdilution (P. aeruginosa; P. aeruginosa ATCC 27853 spontaneous mutant, AA139 selection 4X, plate 1, colony 6, drug-free passage 5): 8, 8 µg/mL | MIC, broth microdilution (P. aeruginosa; P. aeruginosa ATCC 27853 spontaneous mutant, AA139 selection 4X, plate 2, colony 1, drug-free passage 1): 8, 8 µg/mL | MIC, broth microdilution (P. aeruginosa; P. aeruginosa ATCC 27853 spontaneous mutant, AA139 selection 4X, plate 2, colony 1, drug-free passage 5): 8, 8 µg/mL | MIC, broth microdilution (P. aeruginosa; P. aeruginosa ATCC 27853 spontaneous mutant, AA139 selection 4X, plate 2, colony 2, drug-free passage 1): 8, 8 µg/mL | MIC, broth microdilution (P. aeruginosa; P. aeruginosa ATCC 27853 spontaneous mutant, AA139 selection 4X, plate 2, colony 2, drug-free passage 5): 8, 8 µg/mL | MIC, broth microdilution (P. aeruginosa; P. aeruginosa ATCC 27853 spontaneous mutant, AA139 selection 4X, plate 2, colony 3, drug-free passage 1): 8, 8 µg/mL | MIC, broth microdilution (P. aeruginosa; P. aeruginosa ATCC 27853 spontaneous mutant, AA139 selection 4X, plate 2, colony 3, drug-free passage 5): 8, 8 µg/mL | MIC, broth microdilution (P. aeruginosa; P. aeruginosa ATCC 27853 spontaneous mutant, AA139 selection 4X, plate 2, colony 4, drug-free passage 1): 8, 8 µg/mL | MIC, broth microdilution (P. aeruginosa; P. aeruginosa ATCC 27853 spontaneous mutant, AA139 selection 4X, plate 2, colony 4, drug-free passage 5): 8, 8 µg/mL | MIC, broth microdilution (P. aeruginosa; P. aeruginosa ATCC 27853 spontaneous mutant, AA139 selection 8X, plate 1, colony 1, drug-free passage 1): 8, 8 µg/mL | MIC, broth microdilution (P. aeruginosa; P. aeruginosa ATCC 27853 spontaneous mutant, AA139 selection 8X, plate 1, colony 1, drug-free passage 5): 8, 8 µg/mL | MIC, broth microdilution (P. aeruginosa; P. aeruginosa ATCC 27853 spontaneous mutant, AA139 selection 8X, plate 1, colony 2, drug-free passage 1): 8, 8 µg/mL | MIC, broth microdilution (P. aeruginosa; P. aeruginosa ATCC 27853 spontaneous mutant, AA139 selection 8X, plate 1, colony 2, drug-free passage 5): 8, 8 µg/mL | MIC, broth microdilution (P. aeruginosa; P. aeruginosa ATCC 27853 spontaneous mutant, AA139 selection 8X, plate 1, colony 3, drug-free passage 1): 8, 8 µg/mL | MIC, broth microdilution (P. aeruginosa; P. aeruginosa ATCC 27853 spontaneous mutant, AA139 selection 8X, plate 1, colony 3, drug-free passage 5): 8, 8 µg/mL | MIC, broth microdilution (P. aeruginosa; P. aeruginosa ATCC 27853 spontaneous mutant, AA139 selection 8X, plate 1, colony 4, drug-free passage 1): 8, 8 µg/mL | MIC, broth microdilution (P. aeruginosa; P. aeruginosa ATCC 27853 spontaneous mutant, AA139 selection 8X, plate 1, colony 4, drug-free passage 5): 8, 8 µg/mL | MIC, broth microdilution (P. aeruginosa; P. aeruginosa ATCC 27853 spontaneous mutant, AA139 selection 8X, plate 1, colony 5, drug-free passage 1): 8, 8 µg/mL | MIC, broth microdilution (P. aeruginosa; P. aeruginosa ATCC 27853 spontaneous mutant, AA139 selection 8X, plate 1, colony 5, drug-free passage 5): 8, 8 µg/mL | MIC, broth microdilution (P. aeruginosa; P. aeruginosa UNT 138-1 parent strain not exposed to drug): 8 µg/mL (≈ 13.7 µM) | MIC, broth microdilution (P. aeruginosa; P. aeruginosa UNT 138-1 spontaneous mutant, AA139 selection 4X, plate 1, colony 1, drug-free passage 1): 16, 16 µg/mL | MIC, broth microdilution (P. aeruginosa; P. aeruginosa UNT 138-1 spontaneous mutant, AA139 selection 4X, plate 1, colony 1, drug-free passage 5): 16, 16 µg/mL | MIC, broth microdilution (P. aeruginosa; P. aeruginosa UNT 138-1 spontaneous mutant, AA139 selection 4X, plate 1, colony 2, drug-free passage 1): 16, 16 µg/mL | MIC, broth microdilution (P. aeruginosa; P. aeruginosa UNT 138-1 spontaneous mutant, AA139 selection 4X, plate 1, colony 2, drug-free passage 5): 16, 16 µg/mL | MIC, broth microdilution (P. aeruginosa; P. aeruginosa UNT 138-1 spontaneous mutant, AA139 selection 4X, plate 1, colony 3, drug-free passage 1): 16, 16 µg/mL | MIC, broth microdilution (P. aeruginosa; P. aeruginosa UNT 138-1 spontaneous mutant, AA139 selection 4X, plate 1, colony 3, drug-free passage 5): 16, 16 µg/mL | MIC, broth microdilution (P. aeruginosa; P. aeruginosa UNT 138-1 spontaneous mutant, AA139 selection 4X, plate 1, colony 4, drug-free passage 1): 16, 16 µg/mL | MIC, broth microdilution (P. aeruginosa; P. aeruginosa UNT 138-1 spontaneous mutant, AA139 selection 4X, plate 1, colony 4, drug-free passage 5): 16, 16 µg/mL | MIC, broth microdilution (P. aeruginosa; P. aeruginosa UNT 138-1 spontaneous mutant, AA139 selection 4X, plate 1, colony 5, drug-free passage 1): 16, 16 µg/mL | MIC, broth microdilution (P. aeruginosa; P. aeruginosa UNT 138-1 spontaneous mutant, AA139 selection 4X, plate 1, colony 5, drug-free passage 5): 16, 16 µg/mL | MIC, broth microdilution (P. aeruginosa; P. aeruginosa UNT 138-1 spontaneous mutant, AA139 selection 4X, plate 1, colony 6, drug-free passage 1): 16, 16 µg/mL | MIC, broth microdilution (P. aeruginosa; P. aeruginosa UNT 138-1 spontaneous mutant, AA139 selection 4X, plate 1, colony 6, drug-free passage 5): 16, 16 µg/mL | MIC, broth microdilution (P. aeruginosa; P. aeruginosa UNT 138-1 spontaneous mutant, AA139 selection 4X, plate 1, colony 7, drug-free passage 1): 16, 16 µg/mL | MIC, broth microdilution (P. aeruginosa; P. aeruginosa UNT 138-1 spontaneous mutant, AA139 selection 4X, plate 1, colony 7, drug-free passage 5): 16, 16 µg/mL | MIC, broth microdilution (P. aeruginosa; P. aeruginosa UNT 138-1 spontaneous mutant, AA139 selection 4X, plate 2, colony 1, drug-free passage 1): 16, 16 µg/mL | MIC, broth microdilution (P. aeruginosa; P. aeruginosa UNT 138-1 spontaneous mutant, AA139 selection 4X, plate 2, colony 1, drug-free passage 5): 16, 16 µg/mL | MIC, broth microdilution (P. aeruginosa; P. aeruginosa UNT 138-1 spontaneous mutant, AA139 selection 4X, plate 2, colony 2, drug-free passage 1): 16, 16 µg/mL | MIC, broth microdilution (P. aeruginosa; P. aeruginosa UNT 138-1 spontaneous mutant, AA139 selection 4X, plate 2, colony 2, drug-free passage 5): 16, 16 µg/mL | MIC, broth microdilution (P. aeruginosa; P. aeruginosa UNT 138-1 spontaneous mutant, AA139 selection 4X, plate 2, colony 3, drug-free passage 1): 16, 16 µg/mL | MIC, broth microdilution (P. aeruginosa; P. aeruginosa UNT 138-1 spontaneous mutant, AA139 selection 4X, plate 2, colony 3, drug-free passage 5): 16, 16 µg/mL | MIC, broth microdilution (P. aeruginosa; P. aeruginosa UNT 138-1 spontaneous mutant, AA139 selection 4X, plate 2, colony 4, drug-free passage 1): 16, 16 µg/mL | MIC, broth microdilution (P. aeruginosa; P. aeruginosa UNT 138-1 spontaneous mutant, AA139 selection 4X, plate 2, colony 4, drug-free passage 5): 16, 16 µg/mL | MIC, broth microdilution (P. aeruginosa; P. aeruginosa UNT 138-1 spontaneous mutant, AA139 selection 4X, plate 2, colony 5, drug-free passage 1): 16, 16 µg/mL | MIC, broth microdilution (P. aeruginosa; P. aeruginosa UNT 138-1 spontaneous mutant, AA139 selection 4X, plate 2, colony 5, drug-free passage 5): 16, 16 µg/mL | MIC, broth microdilution (P. aeruginosa; P. aeruginosa UNT 138-1 spontaneous mutant, AA139 selection 4X, plate 2, colony 6, drug-free passage 1): 16, 16 µg/mL | MIC, broth microdilution (P. aeruginosa; P. aeruginosa UNT 138-1 spontaneous mutant, AA139 selection 4X, plate 2, colony 6, drug-free passage 5): 16, 16 µg/mL | MIC, broth microdilution (P. aeruginosa; P. aeruginosa UNT 138-1 spontaneous mutant, AA139 selection 4X, plate 2, colony 7, drug-free passage 1): 8 µg/mL (≈ 13.7 µM) | MIC, broth microdilution (P. aeruginosa; P. aeruginosa UNT 138-1 spontaneous mutant, AA139 selection 4X, plate 2, colony 7, drug-free passage 5): 16 µg/mL (≈ 27.3 µM) | MIC, broth microdilution (P. aeruginosa; P. aeruginosa UNT 138-1 spontaneous mutant, AA139 selection 8X, plate 1, colony 1, drug-free passage 1): 8 µg/mL (≈ 13.7 µM) | MIC, broth microdilution (P. aeruginosa; P. aeruginosa UNT 138-1 spontaneous mutant, AA139 selection 8X, plate 1, colony 1, drug-free passage 5): 16 µg/mL (≈ 27.3 µM) | MIC, broth microdilution (P. aeruginosa; P. aeruginosa UNT 138-1 spontaneous mutant, AA139 selection 8X, plate 1, colony 2, drug-free passage 1): 8 µg/mL (≈ 13.7 µM) | MIC, broth microdilution (P. aeruginosa; P. aeruginosa UNT 138-1 spontaneous mutant, AA139 selection 8X, plate 1, colony 2, drug-free passage 5): 16 µg/mL (≈ 27.3 µM) | MIC, broth microdilution (P. aeruginosa; P. aeruginosa UNT 138-1 spontaneous mutant, AA139 selection 8X, plate 1, colony 3, drug-free passage 1): 8 µg/mL (≈ 13.7 µM) | MIC, broth microdilution (P. aeruginosa; P. aeruginosa UNT 138-1 spontaneous mutant, AA139 selection 8X, plate 1, colony 3, drug-free passage 5): 16 µg/mL (≈ 27.3 µM) | MIC, broth microdilution (P. aeruginosa; P. aeruginosa UNT 138-1 spontaneous mutant, AA139 selection 8X, plate 1, colony 4, drug-free passage 1): 8 µg/mL (≈ 13.7 µM) | MIC, broth microdilution (P. aeruginosa; P. aeruginosa UNT 138-1 spontaneous mutant, AA139 selection 8X, plate 1, colony 4, drug-free passage 5): 16 µg/mL (≈ 27.3 µM) | MIC, broth microdilution (P. aeruginosa; P. aeruginosa UNT 138-1 spontaneous mutant, AA139 selection 8X, plate 1, colony 5, drug-free passage 1): 16, 16 µg/mL | MIC, broth microdilution (P. aeruginosa; P. aeruginosa UNT 138-1 spontaneous mutant, AA139 selection 8X, plate 1, colony 5, drug-free passage 5): 16, 16 µg/mL | MIC, broth microdilution (P. aeruginosa; P. aeruginosa UNT 138-1 spontaneous mutant, AA139 selection 8X, plate 2, colony 1, drug-free passage 1): 16, 16 µg/mL | MIC, broth microdilution (P. aeruginosa; P. aeruginosa UNT 138-1 spontaneous mutant, AA139 selection 8X, plate 2, colony 1, drug-free passage 5): 16, 16 µg/mL | MIC, broth microdilution (E. coli; E. coli AUD172 parent strain not exposed to drug): 0.12 µg/mL (≈ 0.205 µM) | MIC, broth microdilution (E. coli; E. coli AUD172 spontaneous mutant, AA139 selection 4X, plate 2, colony 2, drug-free passage 1): 0.12 µg/mL (≈ 0.205 µM) | MIC, broth microdilution (E. coli; E. coli AUD172 spontaneous mutant, AA139 selection 4X, plate 2, colony 2, drug-free passage 5): 0.5 µg/mL (≈ 0.854 µM)
